Legend:
Assay type in all cases: cell-based
[1] = system: A549 (Lung Adenocarcinoma); test: Cell viability analysis (WST-1), A549; settings: Table 4, repeated experiments; drug 10 μM, 72 hours, WST-1
BCC = test: Cell viability analysis (WST-1), BCC; settings: Table 4, repeated experiments, drug 10 μM, 72 hours
AsPC-1 = test: Cell viability analysis (WST-1), AsPC-1; settings: Table 4, repeated experiments, drug 10 μM
Description: (§1) Subculture the different types of cancer cells. The cancer cells includes lung cancer, gastric cancer, hepatic cancer, colon cancer, skin cancer, cervical cancer, prostate cancer, bladder cancer, breast cancer, leukemia, pancreatic cancer, ovarian cancer, tongue cancer, osteosarcoma, and renal cancer. The cell numbers were counted and reseed as 2×10^6 in cell culture plate/flask. Then, the culture medium for culturing the cell lines was added to a volume of 10 ml, and the cells were cultured for 2-3 days. Then, the cells were suspended for loading into 96-well plates. The cell number was 3000 cells and the volume of the culture medium was 100 ul each well.
(§2) Removing the original culture medium from 96-well plate. Then add 100 μl of commercially drug at a concentration of 10 μM per well. After 72 hours, add the diluted WST-1 reagent to the well with 100 μl/well, and the diluted WST-1 reagent was acquired from the dilution of 9:1 medium and WST-1 stock reagent. Finally, the total volume of each well are 200 μl/well. Culture the 96-well plate at 37° C. for 30 to 90 minutes. Detecting and calculating the survival rate of each cancer cells with an ELISA reader at OD450 nm. The lower viability of cancer cells represents better inhibition effect via the drugs. Otherwise, the higher viability of cancer cells represents worse inhibition effect via the drugs.
(§3) According to the above mentioned cardiovascular drugs for cancer growth inhibition in Table 3, the inventors took the repeat experiments for the cardiovascular drugs to check the growth inhibitory effects of cancer cells by the cardiovascular drugs. […] 4.

[2] = system: HCT116 (Colorectal Carcinoma); test: Cell viability analysis (WST-1), HCT116; settings: Table 4, repeated experiments, drug 10 μM
[3] = system: HeLa (Cervix Adenocarcinoma); test: Cell viability analysis (WST-1), HeLa; settings: Table 4, repeated experiments; drug 10 μM, 72 hours, WST-1
SAS = test: Cell viability analysis (WST-1), SAS; settings: Table 4, repeated experiments, drug 10 μM
Description: as §1, §2, §3

Hep3B = test: Cell viability analysis (WST-1), Hep3B; settings: Table 4, repeated experiments, drug 10 μM, 72 hours
Description: as §1, §2, §3

U2OS = test: Cell viability analysis (WST-1), U2OS; settings: Table 4, repeated experiments, drug 10 μM
Description: as §1, §2, §3

T24 = test: Cell viability analysis (WST-1), T24; settings: Table 4, repeated experiments, drug 10 μM
Description: as §1, §2, §3

MDA-MB231 = test: Cell viability analysis (WST-1), MDA-MB231; settings: Table 4, repeated experiments, drug 10 μM
[4] = system: AGS (Gastric Adenocarcinoma); test: Cell viability analysis (WST-1), AGS; settings: Table 4, repeated experiments, drug 10 μM
[5] = system: TSGH-8301 (Urinary Bladder Carcinoma); test: Cell viability analysis (WST-1), TSGH-8301; settings: Table 4, repeated experiments, drug 10 μM
[6] = system: MCF7 (Mammary Gland, Adenocarcinoma); test: Cell viability analysis (WST-1), MCF7; settings: Table 4, repeated experiments, drug 10 μM
[7] = system: HepG2 (Hepatocellular Carcinoma); test: Cell viability analysis (WST-1), HepG2; settings: Table 4, repeated experiments; drug 10 μM, 72 hours, WST-1
[8] = system: H1650 (Lung Adenocarcinoma); test: Cell viability analysis (WST-1), H1650; settings: Table 4, repeated experiments; drug 10 μM, 72 hours, WST-1
786-O = test: Cell viability analysis (WST-1), 786-O; settings: Table 4, repeated experiments, drug 10 μM
Description: as §1, §2, §3

BxPC-3 = test: Cell viability analysis (WST-1), BxPC-3; settings: Table 4, repeated experiments, drug 10 μM
Description: as §1, §2, §3

[9] = system: A375 (Amelanotic Melanoma); test: Cell viability analysis (WST-1), A375; settings: Table 4, repeated experiments; drug 10 μM, 72 hours, WST-1
[10] = system: PC3 (Prostate Adenocarcinoma); test: Cell viability analysis (WST-1), PC3; settings: Table 4, repeated experiments, drug 10 μM
[11] = system: LoVo (Colorectal Adenocarcinoma); test: Cell viability analysis (WST-1), LoVo; settings: Table 4, repeated experiments, drug 10 μM
C-33A = test: Cell viability analysis (WST-1), C-33A; settings: Table 4, repeated experiments, drug 10 μM
Description: as §1, §2, §3

[12] = system: MKN-45 (Gastric Adenocarcinoma); test: Cell viability analysis (WST-1), MKN-45; settings: Table 4, repeated experiments, drug 10 μM
TOV-21G = test: Cell viability analysis (WST-1), TOV-21G; settings: Table 4, repeated experiments, drug 10 μM, 72 hours
Description: as §1, §2, §3

NIH-OVCAR-3 = test: Cell viability analysis (WST-1), NIH-OVCAR-3; settings: Table 4, repeated experiments, drug 10 μM
Description: as §1, §2, §3

cancer cell lines = test: Growth inhibitory effects on the panel of cancer cell lines; settings: drug 10 μM, 72 hours, WST-1
Description: For cell viability analysis, the cardiovascular drugs include peripheral vasodilator reaming enhancer, angiotensin converting agent inhibitor, hypotension and shock therapeutic agent, diuretic, antiarrhythmic agent, antiarralciton drug, antihypertensive agent, anticoagulant thrombolytic agent, cardiac tonic, intravenous (hemorrhoids) therapeutic agent, are used to test the inhibition effect of cancer cell.

CCOC(=O)C1=C(COCCN)NC(C)=C(C(=O)OC)C1c1ccccc1Cl (stereo not drawn) [Amlodipine (Norvase), Amlodipine]
survival rate (viability) of cancer cells, A549 [1]: 89.22
survival rate (viability) of cancer cells, BCC (BCC): 74.9299
survival rate (viability) of cancer cells, AsPC-1 (AsPC-1; 72 hours): 89.04
survival rate (viability) of cancer cells, HCT116 ([2]; 72 hours, WST-1): 91.96
survival rate (viability) of cancer cells, HeLa [3]: 86.96
viability at 10 µM (SAS; 72 h, read-out: survival rate (viability) of cancer cells, SAS): 99.2%
survival rate (viability) of cancer cells, Hep3B (Hep3B): 99.22
viability at 10 µM (U2OS; Homo sapiens, U2OS, 72 h, read-out: survival rate (viability) of cancer cells, U2OS): 78.9%
viability at 10 µM (T24; Homo sapiens, T-24, 72 h, read-out: survival rate (viability) of cancer cells, T24): 96.6%
survival rate (viability) of cancer cells, MDA-MB231 (MDA-MB231; 72 hours): 87.55
viability at 10 µM ([4]; 72 h, WST-1, read-out: survival rate (viability) of cancer cells, AGS): 16.5%
viability at 10 µM ([5]; 72 h, WST-1, read-out: survival rate (viability) of cancer cells, TSGH-8301): 36.2%
survival rate (viability) of cancer cells, MCF-7 ([6]; 72 hours, WST-1): 63.42
survival rate (viability) of cancer cells, HepG2 [7]: 71.76
survival rate (viability) of cancer cells, H1650 [8]: 72.01
viability at 10 µM (786-O; Homo sapiens, 786-0, 72 h, read-out: survival rate (viability) of cancer cells, 786-O): 81.4%
viability at 10 µM (BxPC-3; Homo sapiens, BXPC-3, 72 h, read-out: survival rate (viability) of cancer cells, BxPC-3): 86%
survival rate (viability) of cancer cells, A375 [9]: 81.58
survival rate (viability) of cancer cells, PC-3 ([10]; 72 hours, WST-1): 85.88
survival rate (viability) of cancer cells, LoVo ([11]; 72 hours, WST-1): 90.33
survival rate (viability) of cancer cells, C-33A (C-33A; 72 hours): 38.18
viability at 10 µM ([12]; Homo sapiens, MKN-45, 72 h, WST-1, read-out: survival rate (viability) of cancer cells, MKN-45): 88.2%
survival rate (viability) of cancer cells, TOV-21G (TOV-21G): 61.32
survival rate (viability) of cancer cells, NIH-OVCAR-3 (NIH-OVCAR-3; 72 hours): 90.31

CCOC(=O)C1=C(COCCN)NC(C)=C(C(=O)OC)C1c1ccccc1Cl (stereo not drawn) [Amlodipine besylate (Norvase), Amlodipine besylate]
survival rate (viability) of cancer cells, A549 [1]: 110.3104
survival rate (viability) of cancer cells, BCC (BCC): 102.9778
viability at 10 µM (AsPC-1; Homo sapiens, ASPC1, 72 h, read-out: survival rate (viability) of cancer cells, AsPC-1): 87.8%
viability at 10 µM ([2]; Homo sapiens, HCT-116, 72 h, WST-1, read-out: survival rate (viability) of cancer cells, HCT116): 78.3%
survival rate (viability) of cancer cells, SAS (SAS; 72 hours): 94.7983
survival rate (viability) of cancer cells, Hep3B (Hep3B): 123.4192
inhibition effect on different cancer cell lines (in words) (cancer cell lines): significant inhibition effect
survival rate (viability) of cancer cells, U2OS (U2OS; 72 hours): 71.06
survival rate (viability) of cancer cells, T24 (T24; 72 hours): 93.08
viability at 10 µM (MDA-MB231; Homo sapiens, MDA-MB-231, 72 h, read-out: survival rate (viability) of cancer cells, MDA-MB231): 82.7%
survival rate (viability) of cancer cells, AGS ([4]; 72 hours, WST-1): 12.18
survival rate (viability) of cancer cells, TSGH-8301 ([5]; 72 hours, WST-1): 36.2492
viability at 10 µM ([6]; Homo sapiens, MCF7, 72 h, WST-1, read-out: survival rate (viability) of cancer cells, MCF-7): 80.5%
survival rate (viability) of cancer cells, HepG2 [7]: 95.01
survival rate (viability) of cancer cells, H1650 [8]: 110.2477
survival rate (viability) of cancer cells, 786-O (786-O; 72 hours): 73.16
survival rate (viability) of cancer cells, BxPC-3 (BxPC-3; 72 hours): 99.11
survival rate (viability) of cancer cells, A375 [9]: 136.6675
viability at 10 µM ([10]; 72 h, WST-1, read-out: survival rate (viability) of cancer cells, PC-3): 73.6%
viability at 10 µM ([11]; Homo sapiens, LoVo, 72 h, WST-1, read-out: survival rate (viability) of cancer cells, LoVo): 85.6%
viability at 10 µM (C-33A; Homo sapiens, C-33-A, 72 h, read-out: survival rate (viability) of cancer cells, C-33A): 33.7%
survival rate (viability) of cancer cells, MKN-45 ([12]; 72 hours, WST-1): 86.43
survival rate (viability) of cancer cells, TOV-21G (TOV-21G): 93.55
viability at 10 µM (NIH-OVCAR-3; Homo sapiens, OVCAR-3, 72 h, read-out: survival rate (viability) of cancer cells, NIH-OVCAR-3): 91.6%

— patent US20170304388A1, “NEW INDICATION OF CARDIOVASCULAR DRUGS FOR PREPARATION OF CANCER INHIBITION PHARMACEUTICAL COMPOSITION” (LAUNX BIOMEDICAL CO., LTD., priority 2014, published 2017)
